Measured values as given in patent publication US5708032A, “Fluoroalkenyl compounds and their use as pest control agents” (Monsanto Company, priority 1995, dated 1998).
Where “and” joins values, the source holds several entries; their conditions need not be identical. Equal values may be shown once. Where a name gives a salt, the structure may show the parent alone. Read-outs that look alike come from different tables or passages of the source.

Tested on: root knot nematodes (Meloidogyne incognita)
Test: systemic control of root knot nematodes on tomato roots by foliar application
Type: in vivo
Conditions: for pest or weed control at 100 ppm / pest or weed control at 500 ppm: Meloidogyne incognita, 504 h, read-out: percent control of root disease relative to non-treated plants
Method: Compounds of the present invention, prepared as described above, were tested for effectiveness in controlling root knot nematodes (Meloidogyne incognita) on tomato roots when applied to foliage of young plants.
Tomato plants, cv `Rutgers`, were grown one per pot in six an square plastic pots containing a mixture of equal parts fine sand, coarse sand, silt loam soil, and commercial potting medium. A 10,000 ppm stock solution of each test compound was prepared in either water or acetone. Samples were then diluted with additional water to give final test concentrations of 500 and 100 ppm. Tween®20 was added for a final concentration of 0.5% v/v in all test samples.
When the tomato plants were 18-21 days old the test solutions were sprayed onto the leaves and stems. Each rate of each test compound was applied to three tomato plants using four ml of spray solution per plant. One day after spraying the plants were inoculated with mature root knot nematode eggs containing J1 larvae, with 8,000 eggs per plant applied in 5 ml of water on soil at the stem base. Plants then were incubated in a growth chamber at 27° C. with all replicate pots randomized throughout the chamber. During the two weeks immediately following application of the test compounds all plants received sub-irrigation and the foliage was kept dry.
After three weeks incubation the plant roots were washed and nematode disease severity was assessed. Each root system was rated individually and a visual estimate of the percent of the root system afflicted with nematode galling was determined. Values of 0, 1, 5, 10, 20, 30, 40, 50, 60, 70, 80, or 100 percent galled roots were assigned to each plant. […] For each treatment (compound & rate) a standard deviation was calculated for the mean of the three replicate plants. Percent disease control relative to non-treated plants also was calculated.

[1] = 100 ppm foliar spray, tomato cv Rutgers, 3 weeks, mean of three plants, non-treated generally 60% or greater
[2] = 500 ppm foliar spray, tomato cv Rutgers, 3 weeks, mean of three plants, non-treated generally 60% or greater
[3] = 100 ppm foliar spray, tomato cv Rutgers, 3 weeks, * = no biological activity at the rate tested
[4] = 500 ppm foliar spray, tomato cv Rutgers, 3 weeks, * = no biological activity at the rate tested

Compound | Mean percent root disease (galled) [1] [%] | Mean percent root disease (galled) [2] [%] | pest or weed control at 100 ppm [3] [%] | pest or weed control at 500 ppm [4] [%] | pest or weed control at 100 ppm (foliar) [%] | pest or weed control at 500 ppm (foliar) [%] | Mean percent root disease (galled) (in vivo)
O=C(CC(F)=C(F)F)NS(=O)(=O)C(F)(F)F [Example 9, 3-BUTENAMIDE, 3,4,4-TRIFLUORO-, N-[(TRIFLUOROMETHYL)SULFONYL]-] | 80 | 5 | 0 | 94 |  |  | 
O=P(O)(O)CC(F)=C(F)F [Example 18, PHOSPHONIC ACID, (2,3,3-TRIFLUORO-2-PROPENYL)-] |  |  |  |  | -5 | 0 | 73% and 77%
N#CCNC(=O)CC(F)=C(F)F [Example 2, 3-BUTENAMIDE, N-CYANOMETHYL)-3,4,4- TRIFLUORO-] | 73 | 67 | 8 | 17 |  |  | 
O=C(CC(F)=C(F)F)NCS(=O)(=O)O [Example 10, METHANESULFONIC ACID, [(3,4,4-TRIFLUORO-1-OXO-3- BUTENYL)AMINO]-] | 20 | 27 | 62 | 50 |  |  | 
NC(=O)NNC(=O)CC(F)=C(F)F [Example 4, 3-BUTENOIC ACID, 3,4,4-TRIFLUORO-, 2-(AMINOCARBONYL)HYDRAZIDE] | 80 | 73 | 0 | 8 |  |  | 
O=C(CC(F)=C(F)F)n1cccn1 [Example 12, 1H-PYRAZOLE, 1-(3,4,4-TRIFLUORO-1-OXO-3- BUTENYL)-] | 80 | 43 | 0 | 46 |  |  | 
O=C(CC(F)=C(F)F)Sc1ncccn1 [Example 16, 3,-BUTENETHIOIC ACID, 3,4,4-TRIFLUORO-, S-2-PYRIMIDINYL ESTER] | 80 | 50 | 0 | 38 |  |  | 
FC(F)=C(F)CC(=S)Nc1ccccc1 [Example 13, 3-BUTENETHIOAMIDE, 3,4,4-TRIFLUORO-N-PHENYL-] | 40 | 27 | 25 | 50 |  |  | 
CS(=O)(=O)NC(=O)CC(F)=C(F)F [Example 8, 3-BUTENAMIDE, 3,4,4-TRIFLUORO-N- (METHYLSULFONYL)-] | 80 | 5 | 0 | 94 |  |  | 
COc1cc(OC)nc(NC(=O)CC(F)=C(F)F)n1 [Example 5, 3-BUTENAMIDE, N-(4,6-DIMETHOXY-2-PYRIMIDINYL)- 3,4,4-TRIFLUORO-] | 90 | 30 | -3 | 66 |  |  | 
C[Si](C)(C)CCCOC(=O)CC(F)=C(F)F [Example 14, 3-BUTENOIC ACID, 3,4,4-TRIFLUORO-, 3-(TRIMETHYLSILYL)PROPYL ESTER] |  |  |  |  | 4 | 8 | 80% and 83%
Cc1ccccc1C(=O)CC(F)=C(F)F [Example 20, 3-BUTEN-1-ONE, 3,4,4-TRIFLUORO-1-(2-METHYL PHENYL)-] | 53 | 47 | 0 | 12 |  |  | 
C[Si](C)(C)CCSC(=O)CC(F)=C(F)F [Example 15, 3-BU[…], 3,4,4-TRIFLUORO-, S-[2-(TRIMETHYLSILYL)ETHYL] ESTER] |  |  |  |  | 2 | -3 | 90% and 85%
C[Si](C)(C)CN(Cc1ccccc1)C(=O)CC(F)=C(F)F [Example 6, 3-BUTENAMIDE, 3,4,4-TRIFLUORO-N-(PHENYLMETHYL)- N-[(TRIMETHYLSILYL) METHYL]-] |  |  |  |  | 2 | 0 | 87% and 85%
O=P(O)(CC(F)=C(F)F)c1ccccc1 [Example 19, PHOSPHINIC ACID, PHENYL(2,3,3-TRIFLUORO-2- PROPENYL)-, SODIUM SALT] | 73 | 73 | 0 | 0 |  |  | 
O=C(CC(F)=C(F)F)Nc1ccc(S(=O)(=O)O)cc1 [Example 7, BENZENESULFONIC ACID, 4-[(3,4,4-TRIFLUORO-1-OXO-3- BUTENYL)AMINO]-] | 23 | 17 | 56 | 69 |  |  | 
CONC(=O)CC(F)=C(F)F [Example 3, 3-BUTENAMIDE, 3,4,4-TRIFLUORO-N-METHOXY-] | 77 | 70 | 12 | 20 |  |  | 
O=C(CC(F)=C(F)F)n1cncn1 [Example 11, 1H-1,2,4-TRIAZOLE, 1-(3,4,4-TRIFLUORO-1-OXO-3- BUTENYL)-] | 80 | 7 | 0 | 92 |  |  | 
